Results published in article PMC3961306, “Comparison of the Cancer Gene Targeting and Biochemical Selectivities of All Targeted Kinase Inhibitors Approved for Clinical Use” (PLoS ONE, 2014).

Assays:
Assay in all cases: Kinase profiling in a biochemical assay panel (mobility shift assays and ELISA), %-inhibition at 1 μM; selectivity entropy
[1] = molecular target: panel of more than 300 wild-type and mutant kinases (313 kinase panel) (Homo sapiens, UniProt Q15303)
[2] = molecular target: panel of more than 300 wild-type and mutant kinases (313 kinase panel) (Homo sapiens, UniProt P43405)
[3] = molecular target: T1, panel of more than 300 wild-type and mutant kinases (313 kinase panel) (Homo sapiens, UniProt Q96L34)
T1 sequence (Q96L34 1-752): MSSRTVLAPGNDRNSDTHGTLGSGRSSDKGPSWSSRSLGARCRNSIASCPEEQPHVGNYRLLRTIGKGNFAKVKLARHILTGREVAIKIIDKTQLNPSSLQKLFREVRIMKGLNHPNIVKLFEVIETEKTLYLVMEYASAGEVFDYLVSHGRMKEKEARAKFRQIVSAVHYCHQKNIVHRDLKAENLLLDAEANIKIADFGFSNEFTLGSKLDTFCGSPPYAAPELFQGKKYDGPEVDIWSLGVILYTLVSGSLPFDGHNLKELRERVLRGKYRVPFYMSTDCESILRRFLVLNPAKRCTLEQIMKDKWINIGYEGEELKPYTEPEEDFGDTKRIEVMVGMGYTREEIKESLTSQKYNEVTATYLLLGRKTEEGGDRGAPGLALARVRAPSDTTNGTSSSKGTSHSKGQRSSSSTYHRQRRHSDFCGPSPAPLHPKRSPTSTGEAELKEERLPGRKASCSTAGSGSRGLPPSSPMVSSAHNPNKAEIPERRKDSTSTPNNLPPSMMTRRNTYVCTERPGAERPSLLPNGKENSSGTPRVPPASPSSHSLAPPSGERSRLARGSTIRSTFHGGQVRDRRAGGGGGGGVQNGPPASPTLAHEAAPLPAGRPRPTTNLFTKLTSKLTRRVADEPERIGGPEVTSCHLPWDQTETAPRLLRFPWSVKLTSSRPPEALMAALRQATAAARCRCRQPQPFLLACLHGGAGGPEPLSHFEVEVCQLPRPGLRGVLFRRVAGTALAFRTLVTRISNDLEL

[4] = molecular target: T2, panel of more than 300 wild-type and mutant kinases (313 kinase panel) (Homo sapiens, UniProt Q92630)
T2 sequence (Q92630 1-601): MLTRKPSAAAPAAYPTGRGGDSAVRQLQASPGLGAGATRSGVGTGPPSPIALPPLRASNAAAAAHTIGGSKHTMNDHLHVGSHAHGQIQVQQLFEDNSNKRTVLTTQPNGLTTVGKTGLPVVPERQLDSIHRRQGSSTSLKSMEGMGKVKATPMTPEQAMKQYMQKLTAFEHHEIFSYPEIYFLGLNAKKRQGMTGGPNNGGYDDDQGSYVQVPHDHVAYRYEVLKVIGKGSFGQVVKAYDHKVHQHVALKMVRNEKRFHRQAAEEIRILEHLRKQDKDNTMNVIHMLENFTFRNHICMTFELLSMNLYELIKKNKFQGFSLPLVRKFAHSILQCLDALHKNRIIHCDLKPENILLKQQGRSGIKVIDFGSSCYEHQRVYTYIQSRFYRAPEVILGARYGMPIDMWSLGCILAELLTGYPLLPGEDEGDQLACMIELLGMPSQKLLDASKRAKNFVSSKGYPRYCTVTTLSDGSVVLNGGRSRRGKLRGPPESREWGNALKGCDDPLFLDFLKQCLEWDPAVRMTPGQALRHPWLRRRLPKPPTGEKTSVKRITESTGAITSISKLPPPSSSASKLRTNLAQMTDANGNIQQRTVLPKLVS

[5] = molecular target: T3, panel of more than 300 wild-type and mutant kinases (313 kinase panel) (Homo sapiens, UniProt Q12866)
T3 sequence (Q12866 21-999): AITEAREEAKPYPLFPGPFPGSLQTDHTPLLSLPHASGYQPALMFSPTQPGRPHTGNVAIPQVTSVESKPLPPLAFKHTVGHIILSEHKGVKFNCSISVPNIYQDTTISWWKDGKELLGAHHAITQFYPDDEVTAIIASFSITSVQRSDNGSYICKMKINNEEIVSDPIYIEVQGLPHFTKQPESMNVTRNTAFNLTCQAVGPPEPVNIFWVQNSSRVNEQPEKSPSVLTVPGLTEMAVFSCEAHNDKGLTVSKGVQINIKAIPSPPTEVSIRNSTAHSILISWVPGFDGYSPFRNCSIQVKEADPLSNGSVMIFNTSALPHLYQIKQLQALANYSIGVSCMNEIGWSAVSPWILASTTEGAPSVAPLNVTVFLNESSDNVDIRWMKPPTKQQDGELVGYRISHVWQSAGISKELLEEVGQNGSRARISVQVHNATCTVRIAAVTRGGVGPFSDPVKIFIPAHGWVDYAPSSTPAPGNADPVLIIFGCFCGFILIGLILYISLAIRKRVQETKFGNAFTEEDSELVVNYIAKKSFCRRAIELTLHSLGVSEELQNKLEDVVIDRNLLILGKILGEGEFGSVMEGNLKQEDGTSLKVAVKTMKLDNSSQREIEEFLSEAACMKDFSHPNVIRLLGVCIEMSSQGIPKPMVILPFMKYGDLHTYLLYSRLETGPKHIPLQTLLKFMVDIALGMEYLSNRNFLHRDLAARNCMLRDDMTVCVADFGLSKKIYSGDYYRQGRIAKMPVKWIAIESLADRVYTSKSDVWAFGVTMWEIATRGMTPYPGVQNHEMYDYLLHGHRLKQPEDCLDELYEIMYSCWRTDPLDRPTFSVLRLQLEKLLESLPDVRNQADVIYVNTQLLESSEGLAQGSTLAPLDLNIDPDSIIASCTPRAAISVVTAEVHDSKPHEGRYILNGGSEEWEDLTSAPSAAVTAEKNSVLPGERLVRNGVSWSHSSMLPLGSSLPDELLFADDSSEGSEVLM

[6] = molecular target: panel of more than 300 wild-type and mutant kinases (313 kinase panel) (Homo sapiens, UniProt P24723)
Chain of panel of more than 300 wild-type and mutant kinases (313 kinase panel) (Homo sapiens, UniProt P24723) (P24723 whole entry, change not shown): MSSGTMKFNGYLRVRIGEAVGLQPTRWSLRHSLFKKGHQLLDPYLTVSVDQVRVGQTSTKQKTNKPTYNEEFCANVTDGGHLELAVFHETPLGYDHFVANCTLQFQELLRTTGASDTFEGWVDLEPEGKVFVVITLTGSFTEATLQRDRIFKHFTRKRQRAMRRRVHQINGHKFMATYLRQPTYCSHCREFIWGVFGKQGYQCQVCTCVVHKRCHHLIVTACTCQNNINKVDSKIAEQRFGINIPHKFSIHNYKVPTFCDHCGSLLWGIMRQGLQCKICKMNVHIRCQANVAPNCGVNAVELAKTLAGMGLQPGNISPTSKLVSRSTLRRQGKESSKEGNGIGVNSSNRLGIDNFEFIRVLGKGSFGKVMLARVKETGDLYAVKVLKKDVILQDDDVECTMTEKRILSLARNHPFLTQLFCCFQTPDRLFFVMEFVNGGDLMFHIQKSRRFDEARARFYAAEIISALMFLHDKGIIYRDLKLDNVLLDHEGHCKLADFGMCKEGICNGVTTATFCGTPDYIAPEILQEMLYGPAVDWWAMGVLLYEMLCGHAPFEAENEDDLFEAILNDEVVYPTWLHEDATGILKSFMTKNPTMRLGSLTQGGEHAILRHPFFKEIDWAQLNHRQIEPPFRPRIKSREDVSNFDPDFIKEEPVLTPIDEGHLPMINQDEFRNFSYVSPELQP

Chain of panel of more than 300 wild-type and mutant kinases (313 kinase panel) (Homo sapiens, UniProt Q15303) (Q15303 26-1308, change not shown): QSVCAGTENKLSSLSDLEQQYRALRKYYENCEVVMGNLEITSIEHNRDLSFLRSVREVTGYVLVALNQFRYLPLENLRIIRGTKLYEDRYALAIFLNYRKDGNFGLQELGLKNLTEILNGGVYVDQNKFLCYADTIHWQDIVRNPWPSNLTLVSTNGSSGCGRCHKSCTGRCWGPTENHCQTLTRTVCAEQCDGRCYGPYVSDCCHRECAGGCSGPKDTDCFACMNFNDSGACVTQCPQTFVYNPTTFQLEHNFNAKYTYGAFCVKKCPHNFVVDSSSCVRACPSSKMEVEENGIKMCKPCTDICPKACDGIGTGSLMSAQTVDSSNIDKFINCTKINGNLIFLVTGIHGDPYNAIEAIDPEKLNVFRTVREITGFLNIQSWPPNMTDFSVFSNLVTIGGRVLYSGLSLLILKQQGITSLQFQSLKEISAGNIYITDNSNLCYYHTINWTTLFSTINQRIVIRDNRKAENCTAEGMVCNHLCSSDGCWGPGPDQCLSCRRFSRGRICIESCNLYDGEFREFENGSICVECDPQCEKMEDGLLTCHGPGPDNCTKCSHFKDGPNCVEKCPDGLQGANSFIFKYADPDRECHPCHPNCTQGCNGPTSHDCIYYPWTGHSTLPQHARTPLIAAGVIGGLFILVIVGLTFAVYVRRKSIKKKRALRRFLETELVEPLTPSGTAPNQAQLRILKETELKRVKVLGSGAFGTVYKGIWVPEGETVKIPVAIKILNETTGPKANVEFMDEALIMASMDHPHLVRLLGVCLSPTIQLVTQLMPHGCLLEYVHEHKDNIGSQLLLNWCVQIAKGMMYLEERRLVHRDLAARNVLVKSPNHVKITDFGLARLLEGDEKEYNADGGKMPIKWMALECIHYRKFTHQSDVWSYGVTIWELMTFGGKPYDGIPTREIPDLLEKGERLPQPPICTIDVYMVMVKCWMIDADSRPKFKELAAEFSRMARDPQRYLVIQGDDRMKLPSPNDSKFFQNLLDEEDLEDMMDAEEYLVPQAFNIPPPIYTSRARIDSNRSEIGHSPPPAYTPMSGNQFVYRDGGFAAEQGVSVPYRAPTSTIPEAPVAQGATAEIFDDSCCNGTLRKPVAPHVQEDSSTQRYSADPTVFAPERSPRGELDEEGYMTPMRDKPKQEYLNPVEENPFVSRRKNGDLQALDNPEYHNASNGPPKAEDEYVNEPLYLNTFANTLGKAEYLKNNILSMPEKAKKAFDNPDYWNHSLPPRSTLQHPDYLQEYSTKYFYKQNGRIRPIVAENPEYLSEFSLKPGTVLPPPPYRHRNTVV

| Structure (SMILES) | %-inhibition of HER4 ([1]; kinase HER4, compound at 1 μM) [%] | %-inhibition of SYK ([2]; kinase SYK, 1 μM) [%] | %-inhibition of MARK4 ([3]; kinase MARK4, compound at 1 μM) [%] | %-inhibition of DYRK2 ([4]; kinase DYRK2, compound at 1 μM) [%] | %-inhibition of MER ([5]; kinase MER, compound at 1 μM) [%] | %-inhibition of PKCη ([6]; kinase PKCη, 1 μM) [%] | %-inhibition of HER4 ([1]; 1 µM) [%] | %-inhibition of SYK ([2]; 1 µM) [%] | %-inhibition of MER ([5]; 1 µM) [%] | %-inhibition of DYRK2 ([4]; 1 µM) [%] | %-inhibition of MARK4 ([3]; 1 µM) [%] | %-inhibition of PKCη ([6]; 1 µM) [%] |
| --- | --- | --- | --- | --- | --- | --- | --- | --- | --- | --- | --- | --- |
| CO[C@H]1C[C@@H]2CC[C@@H](C)[C@@](O)(O2)C(=O)C(=O)N2CCCC[C@H]2C(=O)O[C@H]([C@H](C)C[C@@H]2CC[C@@H](OC(=O)C(C)(CO)CO)[C@H](OC)C2)CC(=O)[C@H](C)/C=C(\C)[C@@H](O)[C@@H](OC)C(=O)[C@H](C)C[C@H](C)/C=C/C=C/C=C/1C [temsirolimus] | -5.46 | -13 | -26 | -3.63 | -3.24 | 8 | – | – | – | – | – | – |
| CNC(=O)c1cc(Oc2ccc(NC(=O)Nc3ccc(Cl)c(C(F)(F)F)c3)c(F)c2)ccn1 [regorafenib] | 3.81 | 3.55 | -16 | 2 | 29 | -9 | – | – | – | – | – | – |
| CO[C@H]1C[C@@H]2CC[C@@H](C)[C@@](O)(O2)C(=O)C(=O)N2CCCC[C@H]2C(=O)O[C@H]([C@H](C)C[C@@H]2CC[C@@H](OCCO)[C@H](OC)C2)CC(=O)[C@H](C)/C=C(\C)[C@@H](O)[C@@H](OC)C(=O)[C@H](C)C[C@H](C)/C=C/C=C/C=C/1C [everolimus] | -7 | -2.55 | -27 | -10 | -4.24 | 9 | – | – | – | – | – | – |
| COc1cc2nccc(Oc3ccc(NC(=O)C4(C(=O)Nc5ccc(F)cc5)CC4)cc3)c2cc1OC [cabozantinib] | 23 | -3 | -9 | 17 | 100 | 8.55 | – | – | – | – | – | – |
| Cc1nc(Nc2ncc(C(=O)Nc3c(C)cccc3Cl)s2)cc(N2CCN(CCO)CC2)n1 [dasatinib] | 103 | 69 | – | 12 | – | 3 | – | – | – | – | – | – |
| COc1cc2c(Nc3ccc(Br)cc3F)ncnc2cc1OCC1CCN(C)CC1 [vandetanib] | – | 27 | 2.39 | -9 | 45 | -9 | – | – | – | – | – | – |
| CC(C)(C)c1nc(-c2cccc(NS(=O)(=O)c3c(F)cccc3F)c2F)c(-c2ccnc(N)n2)s1 [dabrafenib] | 23 | 37 | -27 | 6 | -0.876 | 9 | – | – | – | – | – | – |
| Cc1ccc(Nc2nccc(N(C)c3ccc4c(C)n(C)nc4c3)n2)cc1S(N)(=O)=O [pazopanib] | 16 | 40 | 9 | -1 | 34 | -1.67 | – | – | – | – | – | – |
| N#CC[C@H](C1CCCC1)n1cc(-c2ncnc3[nH]ccc23)cn1 [ruxolitinib] | – | – | 53 | -10 | – | -1.36 | -1.9 | 20 | -0.749 | – | – | – |
| C[C@@H](Oc1cc(-c2cnn(C3CCNCC3)c2)cnc1N)c1c(Cl)ccc(F)c1Cl [crizotinib] | -18 | – | 51 | 10 | – | -8 | – | – | – | – | – | – |
| CCCS(=O)(=O)Nc1ccc(F)c(C(=O)c2c[nH]c3ncc(-c4ccc(Cl)cc4)cc23)c1F [vemurafenib] | 11 | -3.77 | 3.78 | 1 | 6 | -22 | – | – | – | – | – | – |
| O=S(=O)(c1cccc2cnccc12)N1CCCNCC1 [fasudil] | -0.227 | 6 | -21 | -1.3 | -2.34 | 35 | – | – | – | – | – | – |
| CS(=O)(=O)CCNCc1ccc(-c2ccc3ncnc(Nc4ccc(OCc5cccc(F)c5)c(Cl)c4)c3c2)o1 [lapatinib] | – | 0 | 10 | – | 6 | 2.46 | 102 | – | – | 10 | – | – |
| C#Cc1cccc(Nc2ncnc3cc(OCCOC)c(OCCOC)cc23)c1 [erlotinib] | – | – | – | – | – | – | 97 | 17 | 10 | 45 | 14 | 6.34 |
| Cc1cn(-c2cc(NC(=O)c3ccc(C)c(Nc4nccc(-c5cccnc5)n4)c3)cc(C(F)(F)F)c2)cn1 [nilotinib] | – | 54 | 12 | 28 | -46 | 5.43 | 73 | – | – | – | – | – |
| COc1cc(Nc2c(C#N)cnc3cc(OCCCN4CCN(C)CC4)c(OC)cc23)c(Cl)cc1Cl [bosutinib] | 102 | 100 | – | – | – | 1.14 | – | – | – | – | – | – |
| CCN(CC)CCNC(=O)c1c(C)[nH]c(/C=C2\C(=O)Nc3ccc(F)cc32)c1C [sunitinib] | – | – | 92 | – | – | – | – | – | – | – | – | – |
| Cc1ccc(C(=O)Nc2ccc(CN3CCN(C)CC3)c(C(F)(F)F)c2)cc1C#Cc1cnc2cccnn12 [ponatinib] | 101 | 10 | -2.58 | – | – | 5.45 | – | – | – | – | – | – |
